Assay results as given in patent publication US5599808A, “Aqueous indolocarbazole solutions” (Cephalon, Inc., priority 1995, dated 1997).
Converted amounts (≈) assume the structure as drawn.

Key:
[1] = Concentration of dissolved indolocarbazole obtained in aqueous solutions (HPLC); conditions: organic solvent or mixture
Experimental: In general, a solution of the concentrate can be prepared by combining a dispersant such as polyvinylpyrrolidone C-30 and a selected organic solvent such as propylene glycol into a beaker. The mixture is continuously stirred until completely dissolved. Solid PVP or other solution components may take 1-2 hours to dissolve completely at room temperature.
An amount of an indolocarbazole, for example, staurosporine, K-252a, or any one of indolocarbazole A, B, or C (Table 1) can each be individually weighed and added to a small aliquot of the aqueous solution, resulting in a 10 mg/ml solution after the indolocarbazole completely dissolves. Alternatively, a mixture of indolocarbazoles may be combined, weighed, and added to a small aliquot of the aqueous solution resulting in a 10 mg/ml solution after the indolocarbazole completely dissolves. An indolocarbazole solution can be stirred or shaken vigorously overnight. Any undissolved indolocarbazole is removed by standard centrifugation or filtration techniques. The concentration of solubilized indolocarbazole can be determined by reversed phase HPLC using a UV detector (290 nm).
The following HPLC conditions are used to determine the concentration of an indolocarbazole:
HPLC Column: Zorbax Rx C-18 4.6×250 mm, 5 micron particle size
Prior to injection of an indolocarbazole solution, there is allowed a 10 minute equilibration time.
Fifty g of PEG-400 were added to 50 ml of water and the mixture vigorously stirred until completely dissolved. One mg of either K-252a, staurosporine or the indolocarbazoles B or C (see Table 1) were added individually to a 100 μl aliquot of the PEG-400 solution and the resulting mixture was shaken overnight. The solution was clarified by centrifugation at 1000 rpm for 10 minutes. The supernatant was saved and any residue discarded. Ten μl of the supernatant was removed, diluted with DMSO (100:1) and the concentration of dissolved K-252a determined by HPLC.
Same as example 1 except that PEG-600 was used instead of PEG-400.
Same as example 1 except that PEG-1000 was used instead of PEG-400.
Same as example 1 except that 48 ml of water was used and 2 g of benzyl alcohol was added to the PEG-400 solution.
Same as example 2 except that 48 ml of water was used and 2 g of benzyl alcohol was added to the PEG-600 solution.
Same as example 3 except that 48 ml of water was used and 2 g of benzyl alcohol was added to the PEG-1000 solution.
2.5 g of benzyl alcohol was added to 47.5 g of PEG-400 and, in a separate container, 2.5 g of Pluronic F68 was added to 47.5 ml of water. Each solution was stirred until completely dissolved, then each solution was combined and stirred until homogeneous. One mg of K-252a was added to 100 μl of the solution and the resulting mixture was shaken overnight. The solution was clarified by centrifugation at 1000 rpm for 10 minutes. Ten (10) μl of supernatant was removed, diluted with DMSO (100:1), and the concentration of dissolved K-252a determined by HPLC.
Same as example 7 except that Pluronic™ L61 was used instead of Pluronic™ F68.
Same as example 7 except that Pluronic™ L64 was used instead of Pluronic™ F68.
Same as example 7 except that Tween™ 20 was used instead of Pluronic™ F68.
Same as example 7 except that Tween™ 80 was used instead of Pluronic™ F68.
Same as example 7 except that PVP was used instead of Pluronic™ F68 and PEG-300 was used instead of PEG-400.
Same as example 12 except that PEG-400 was used instead of PEG-300 and indolocarbazoles A, B or C were each solubilized individually in addition to K-252a.
Same as example 12 except that PEG-600 was used instead of PEG-300 and indolocarbazoles A, B or C were each solubilized individually in addition to K-252
Same as example 12 except that PEG-1000 was used instead of PEG-300.
Ten (10) g of Triton X-100 was added to 38 ml of water and the mixture was stirred thoroughly.

[2] = cited from earlier work
[3] = test system: protein kinase; conditions: Berg et al. J. Biol. Chem. 267:13-16 (1992); cited from earlier work

Work on `COC(=O)C1(O)CC2OC1(C)n1c3ccccc3c3c4c(c5c6ccccc6n2c5c31)C(=O)NC4` (centres unmarked) [Compound K-252a] yielded a solubility thermodynamic ([1]; 50% peg 400, 50% h2o, Concentration Obtained, Example 1: 50% PEG 400, 50% H2O, target 10 mg/ml) of 1390 µg/mL (≈ 2.97 mM), a solubility thermodynamic ([1]; 50% peg 600, 50% h2o, Concentration Obtained, Example 2: 50% PEG 600, 50% H2O, target 10 mg/ml) of 1920 µg/mL (≈ 4.11 mM) and a solubility thermodynamic ([1]; 50% peg 1000, 50% h2o, Concentration Obtained, Example 3: 50% PEG 1000, 50% H2O, target 10 mg/ml) of 1820 µg/mL (≈ 3.89 mM). It also gave a solubility thermodynamic ([1]; peg 300/ba/pvp/h2o, Concentration Obtained, Example 12: 47.5% PEG 300, 2.5% BA, 2.5% PVP, 47.5% H2O, target 10 mg/ml) of 9600 µg/mL (≈ 20.5 mM), a solubility thermodynamic ([1]; peg 400/ba/h2o, Concentration Obtained, Example 4: 50% PEG 400, 2% BA, 48% H2O, target 10 mg/ml) of 2080 µg/mL (≈ 4.45 mM) and a solubility thermodynamic ([1]; peg 400/ba/pluronic f68/h2o, Concentration Obtained, Example 7: 47.5% PEG 400, 2.5% BA, 2.5% Pluronic F68, 47.5% H2O, target 10 mg/ml) of 5500 µg/mL (≈ 11.8 mM). For the same compound, the solubility thermodynamic ([1]; peg 400/ba/pluronic l61/h2o, Concentration Obtained, Example 8: 47.5% PEG 400, 2.5% BA, 2.5% Pluronic L61, 47.5% H2O, target 10 mg/ml) was 3500 µg/mL (≈ 7.49 mM), the solubility thermodynamic ([1]; peg 400/ba/pluronic l64/h2o, Concentration Obtained, Example 9: 47.5% PEG 400, 2.5% BA, 2.5% Pluronic L64, 47.5% H2O, target 10 mg/ml) was 1800 µg/mL (≈ 3.85 mM) and the solubility thermodynamic ([1]; peg 400/ba/pvp/h2o, Concentration Obtained, Example 13: 47.5% PEG 400, 2.5% BA, 2.5% PVP, 47.5% H2O, target 10 mg/ml) was 10000 µg/mL (≈ 21.4 mM). The solubility thermodynamic ([1]; peg 400/ba/tween 20/h2o, Concentration Obtained, Example 10: 47.5% PEG 400, 2.5% BA, 2.5% Tween 20, 47.5% H2O, target 10 mg/ml) was 6000 µg/mL (≈ 12.8 mM), the solubility thermodynamic ([1]; peg 400/ba/tween 80/h2o, Concentration Obtained, Example 11: 47.5% PEG 400, 2.5% BA, 2.5% Tween 80, 47.5% H2O, target 10 mg/ml) was 3700 µg/mL (≈ 7.91 mM) and the solubility thermodynamic ([1]; peg 600/ba/h2o, Concentration Obtained, Example 5: 50% PEG 600, 2% BA, 48% H2O, target 10 mg/ml) was 2720 µg/mL (≈ 5.82 mM). It also gave a solubility thermodynamic ([1]; peg 600/ba/pvp/h2o, Concentration Obtained (saturation level), Example 20: 47.5% PEG 600, 2.5% BA, 2.5% PVP, 47.5% H2O, 10 mg added) of 10000 µg/mL (≈ 21.4 mM), a solubility thermodynamic ([1]; peg 600/ba/pvp/h2o, Concentration Obtained (saturation level), Example 22: 50% PEG 600, 2% BA, 10% PVP, 38% H2O, 10 mg added) of 21200 µg/mL (≈ 45.3 mM) and a solubility thermodynamic ([1]; peg 600/ba/pvp/h2o, Concentration Obtained, Example 14: 47.5% PEG 600, 2.5% BA, 2.5% PVP, 47.5% H2O, target 10 mg/ml) of 10000 µg/mL (≈ 21.4 mM). It also gave a solubility thermodynamic ([1]; peg 600/ba/pvp/h2o, Concentration Obtained, Example 18: 50% PEG 600, 2% BA, 10% PVP, 38% H2O, target 10 mg/ml) of 10000 µg/mL (≈ 21.4 mM), a solubility thermodynamic ([1]; peg 600/ba/triton x-100/h2o, Concentration Obtained, Example 16: 50% PEG 600, 2% BA, 10% Triton X-100, 38% H2O, target 10 mg/ml) of 10000 µg/mL (≈ 21.4 mM) and a solubility thermodynamic ([1]; peg 600/ba/tween 80/h2o, Concentration Obtained, Example 17: 50% PEG 600, 2% BA, 10% Tween 80, 38% H2O, target 10 mg/ml) of 8830 µg/mL (≈ 18.9 mM). The solubility thermodynamic ([1]; peg 1000/ba/h2o, Concentration Obtained, Example 6: 50% PEG 1000, 2% BA, 48% H2O, target 10 mg/ml) was 1830 µg/mL (≈ 3.91 mM), the solubility thermodynamic ([1]; peg 1000/ba/pvp/h2o, Concentration Obtained (saturation level), Example 21: 47.5% PEG 1000, 2.5% BA, 2.5% PVP, 47.5% H2O, 10 mg added) was 14100 µg/mL (≈ 30.2 mM) and the solubility thermodynamic ([1]; peg 1000/ba/pvp/h2o, Concentration Obtained, Example 15: 47.5% PEG 1000, 2.5% BA, 2.5% PVP, 47.5% H2O, target 10 mg/ml) was 10000 µg/mL (≈ 21.4 mM). The solubility thermodynamic ([1]; peg 1000/ba/pvp/h2o, Concentration Obtained, Example 19: 40% PEG 1000, 2% BA, 10% PVP, 48% H2O, target 10 mg/ml) was 10000 µg/mL (≈ 21.4 mM), the insolubility in water ([2]; Nakanishi et al.) was “insolubility” and the “solubility in non-aqueous, toxic solvents” value ([2]; non-aqueous, toxic solvents) was “soluble in non-aqueous, toxic solvents”. The solubility in water ([2]; water) was “insoluble in water” and the “modulation of neurotrophin responses by affecting protein kinase activity” value [3] was “modulate neurotrophin responses”.
